What was measured:
KU812 leukemic cells = assay: In vivo treatment of nude mice injected s.c. with KU812 leukemic cells; design: species or system CD1 nu/nu mice
Protocol: Seven to 9 week-old female CD1 nu/nu mice purchased at Charles River Breedin Laboratories (Calco, Italy) are kept under standard laboratory conditions according to the guidelines of the National Cancer Institutes, Milan, Italy. This study is approved by the institutional ethics committee for laboratory animals used in experimental research. KU812 bcr/abl positive cell line is injected (50×10^6 cells per animal) subcutaneously in the left flank of the animal. Oral treatment is administered through a syringe connected to a soft plastic tube introduced in esophagus (gavage). Tumor weight (TW) and total weight are monitored every 3-4 days. TW is calculated by the formula TW [mg]=(d^2×D), where d and D are the shortest and longest diameters of the tumor, respectively, measured in millimeters. Treatment is started 1-15 days after leukemic cell injection.
Nude mice are injected s.c. with 50 millions KU812 cells. Treatment is initiated after 1, 8 and 15 days respectively (groups I to III), in the presence of approximately, 50, 300 millions and 1 billion leukemic cells. […] To test this hypothesis mice in group II are treated for 11 or 18 days.
Mice are injected with KU812 cells and treatment is started 11 days later in the presence of an approximate tumor load of 400 mg.

bcr/abl = biological target: T1, bcr/abl (Homo sapiens, UniProt P00519); assay: In vitro bcr/abl autophosphorylation in KU812 cells (anti-phosphotyrosine western blot); assay type: cell-based; conditions: erythromycin base 100 μM, STI571 3 μM, AGP 2 mg/ml, 1 hour
T1 construct: Endogenous bcr/abl and tyrosine-phosphorylated bcr/abl are detected with the corresponding mouse monoclonal antibody; BCR N-terminal portion (fusion partner, human BCR P11274); endogenous in cells; host or cells: KU812 (DSMZ ACC 378), in culture or as subcutaneous tumour in CD1 nu/nu mice; the other entry of the earlier key: BCR (P11274, Breakpoint cluster region protein)
T1 sequence (P00519 with tags, fused parts or gaps): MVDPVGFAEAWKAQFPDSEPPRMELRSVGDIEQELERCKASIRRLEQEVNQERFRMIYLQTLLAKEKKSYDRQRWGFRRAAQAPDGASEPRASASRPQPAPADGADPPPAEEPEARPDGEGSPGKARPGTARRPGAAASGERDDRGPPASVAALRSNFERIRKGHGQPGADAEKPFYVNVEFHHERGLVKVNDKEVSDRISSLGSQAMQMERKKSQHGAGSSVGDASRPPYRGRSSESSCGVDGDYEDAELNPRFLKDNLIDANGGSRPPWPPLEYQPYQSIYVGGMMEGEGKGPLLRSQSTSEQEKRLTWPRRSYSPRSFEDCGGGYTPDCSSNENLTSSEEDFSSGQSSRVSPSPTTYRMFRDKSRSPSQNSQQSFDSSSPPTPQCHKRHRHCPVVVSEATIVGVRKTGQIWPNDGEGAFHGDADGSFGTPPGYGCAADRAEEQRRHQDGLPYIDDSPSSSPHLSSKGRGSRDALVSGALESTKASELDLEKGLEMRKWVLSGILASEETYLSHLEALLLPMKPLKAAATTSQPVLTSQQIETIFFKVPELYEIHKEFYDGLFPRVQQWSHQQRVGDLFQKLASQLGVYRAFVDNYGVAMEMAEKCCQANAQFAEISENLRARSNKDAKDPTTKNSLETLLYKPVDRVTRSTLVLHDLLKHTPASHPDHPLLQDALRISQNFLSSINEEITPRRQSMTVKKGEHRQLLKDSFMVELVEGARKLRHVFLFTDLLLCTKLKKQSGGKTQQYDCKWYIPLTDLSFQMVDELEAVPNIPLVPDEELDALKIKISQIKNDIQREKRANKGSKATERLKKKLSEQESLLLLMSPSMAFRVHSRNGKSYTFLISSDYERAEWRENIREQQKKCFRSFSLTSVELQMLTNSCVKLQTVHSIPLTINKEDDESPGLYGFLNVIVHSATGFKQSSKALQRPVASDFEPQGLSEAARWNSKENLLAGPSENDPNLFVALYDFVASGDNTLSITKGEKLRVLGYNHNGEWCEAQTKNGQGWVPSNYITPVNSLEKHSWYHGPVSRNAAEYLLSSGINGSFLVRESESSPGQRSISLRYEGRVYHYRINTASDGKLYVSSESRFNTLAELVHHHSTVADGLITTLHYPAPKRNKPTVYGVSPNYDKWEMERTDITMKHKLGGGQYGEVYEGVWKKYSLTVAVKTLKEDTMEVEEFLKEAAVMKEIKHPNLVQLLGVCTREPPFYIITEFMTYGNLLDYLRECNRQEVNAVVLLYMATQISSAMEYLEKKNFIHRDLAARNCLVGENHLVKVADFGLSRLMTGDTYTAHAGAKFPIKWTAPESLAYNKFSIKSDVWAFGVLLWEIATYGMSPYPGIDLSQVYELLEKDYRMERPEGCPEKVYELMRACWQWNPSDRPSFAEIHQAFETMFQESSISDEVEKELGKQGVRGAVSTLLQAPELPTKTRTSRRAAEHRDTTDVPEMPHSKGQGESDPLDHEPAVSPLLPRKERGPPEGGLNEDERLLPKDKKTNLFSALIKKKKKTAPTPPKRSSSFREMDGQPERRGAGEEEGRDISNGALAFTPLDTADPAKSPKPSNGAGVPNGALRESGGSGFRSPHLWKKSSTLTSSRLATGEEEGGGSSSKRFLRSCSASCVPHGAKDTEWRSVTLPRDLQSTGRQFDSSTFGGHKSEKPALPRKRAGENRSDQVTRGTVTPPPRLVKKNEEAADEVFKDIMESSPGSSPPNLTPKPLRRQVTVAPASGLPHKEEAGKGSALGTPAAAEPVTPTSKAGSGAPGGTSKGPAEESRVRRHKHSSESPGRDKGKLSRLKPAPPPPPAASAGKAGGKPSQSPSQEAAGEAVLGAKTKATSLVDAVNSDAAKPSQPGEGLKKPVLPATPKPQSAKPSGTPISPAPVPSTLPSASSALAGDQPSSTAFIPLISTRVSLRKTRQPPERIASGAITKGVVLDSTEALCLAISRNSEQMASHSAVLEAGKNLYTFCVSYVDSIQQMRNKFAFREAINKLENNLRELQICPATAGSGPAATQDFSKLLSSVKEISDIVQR

KU812 cells = assay: Tritiated thymidine uptake in vitro proliferation assay; conditions: erythromycin 5 to 30 μM, STI571 1 μM, AGP 1 mg/ml

Structure (SMILES)	Animals that developed tumor growth, non pretreated mice (KU812 leukemic cells; 160 mg/kg every 8 hours for 11 days starting 24 hours after cell injection)	Cure, group printed as 'group II' (KU812 leukemic cells; 160 mg/kg p.o. every 8 hours for 11 days, sentence follows the group II relapse rate)	Cured animals, controls not pretreated (KU812 leukemic cells; injected with KU812, treated with STI571 24 hours later)	Animals with tumor growth, pretreated mice (KU812 leukemic cells; pretreated with STI571, then 160 mg/kg every 8 hours for 11 days starting 24 hours after injection, p<0.05)	Cured animals, pretreated with STI571 (KU812 leukemic cells; pretreated, injected with KU812, treated 24 hours later, p<0.01 vs controls)	Response of relapsed tumors to re-treatment (KU812 leukemic cells; same 11 day regimen, started when tumors measurable again)	Cure, group I (KU812 leukemic cells; treatment started 1 day after cell injection, 160 mg/kg p.o. every 8 hours for 11 days)	Animals showing disappearance of the tumor / tumor free (KU812 leukemic cells; treatment started 11 days after injection, tumor load about 400 mg, every 8 hours for 18 days)	Number of animals that relapsed (KU812 leukemic cells; treatment started at day 11, 18 days of treatment, relapse between day 25 and 40)	Animals cured at last day of follow up (day 120) (KU812 leukemic cells; treatment started at day 11, tumor load about 400 mg, 18 days, p<0.01 between groups)	Cure of animals bearing large tumors (KU812 leukemic cells; tumors >400 mg at start of treatment)	Effect of erythromycin on STI571 block of bcr/abl kinase activity in presence of AGP (bcr/abl)	Tumor regression, erythromycin alone (KU812 leukemic cells; control groups, erythromycin in methyl cellulose 5%, not shown)	Effect of erythromycin on AGP-mediated block of STI571 activity on KU812 proliferation (KU812 cells)
Cc1ccc(NC(=O)c2ccc(CN3CCN(C)CC3)cc2)cc1Nc1nccc(-c2cccnc2)n1 [STI571]	0/14	no cure is ever observed	16/16	7/14	8/16	respond poorly to the new treatment	reproducibly cured	5/15	4 animals	1/13	no animal was cured	–	–	–
CC[C@H]1OC(=O)[C@H](C)[C@@H](O[C@H]2C[C@@](C)(OC)[C@@H](O)[C@H](C)O2)[C@H](C)[C@@H](O[C@@H]2O[C@H](C)C[C@H](N(C)C)[C@H]2O)[C@](C)(O)C[C@@H](C)C(=O)[C@H](C)[C@@H](O)[C@]1(C)O [erythromycin, Erythromycin]	–	–	–	–	–	–	–	–	–	–	–	STI571 activity can be restored	do not show any evidence of tumor regression	restores sensitivity to STI571 with a clear dose response relationship
